Measurements taken from ChEMBL document CHEMBL1201862, “PubChem BioAssay data set” (2004).
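Grown in 96-well plates, cells were treated for 48 hours with each compound at five concentrations. Insufficient inhibition: endpoint recorded as highest concentration tested. The concentration for 50% growth inhibition is given as GI50.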 Activity calls are given as the source filed them. No stated cut-off is given here; in the data, active = GI50 up to about 1.1 µM and inactive = higher.

Assays:
Test in all cases: NCI-60 cell line screen, 48 h
OVCAR-8 = tested on: OVCAR-8
MOLT-4 = tested on: MOLT-4
OVCAR-5 = tested on: OVCAR-5
CAKI-1 = tested on: CAKI-1
ACHN = tested on: ACHN
MDA-MB-435 = tested on: MDA-MB-435
DU-145 = tested on: DU-145
HCC 2998 = tested on: HCC 2998
PC-3 = tested on: PC-3
786-0 = tested on: 786-0
IGROV-1 = tested on: IGROV-1
HOP-92 = tested on: HOP-92
SF-268 = tested on: SF-268
MDA-N = tested on: MDA-N
UACC-257 = tested on: UACC-257
HCT-15 = tested on: HCT-15
NCI-H522 = tested on: NCI-H522
MDA-MB-231 = tested on: MDA-MB-231
SK-OV-3 = tested on: SK-OV-3
SF-539 = tested on: SF-539

Structure (SMILES)	GI50 (OVCAR-8)	GI50 (MOLT-4)	GI50 (OVCAR-5)	GI50 (CAKI-1)	GI50 (ACHN)	GI50 (MDA-MB-435)	GI50 (DU-145)	GI50 (HCC 2998)	GI50 (PC-3)	GI50 (786-0)	GI50 (IGROV-1)	GI50 (HOP-92)	GI50 (SF-268)	GI50 (MDA-N)	GI50 (UACC-257)	GI50 (HCT-15)	GI50 (NCI-H522)	GI50 (MDA-MB-231)	GI50 (SK-OV-3)	GI50 (SF-539)
Nc1nc(SCCc2ccccc2)c2nc[nH]c2n1	95.9 µM (inactive)	33.6 µM (inactive)	72.3 µM (inactive)	61.9 µM (inactive)	35.7 µM (inactive)	81.7 µM (inactive)	36.2 µM (inactive)	25.9 µM (inactive)	38.9 µM (inactive)	78.2 µM (inactive)	51.1 µM (inactive)	76.6 µM (inactive)	46.6 µM (inactive)	55.7 µM (inactive)	23.7 µM (inactive)	37.2 µM	66.2 µM (inactive)	51.1 µM (inactive)		
CC1=C[C@H](O)[C@@]2(C)[C@@H]([C@@H]1C)[C@H]1CC[C@@H]3[C@@]4(C)CC[C@H](O)C(C)(C)[C@@H]4CC[C@@]3(C)[C@]1(C)C[C@@H]2O	20.6 µM (inactive)	13.7 µM (inactive)	15.6 µM (inactive)	20.8 µM (inactive)		20.7 µM (inactive)	16.4 µM (inactive)	18.8 µM (inactive)	20.6 µM (inactive)	14 µM (inactive)	20.5 µM (inactive)	13.8 µM (inactive)	10.5 µM (inactive)	15.8 µM (inactive)	20.1 µM (inactive)	19 µM	17.9 µM (inactive)	20.3 µM (inactive)	18.4 µM (inactive)	
O=c1oc2ccc(Cl)cc2cc1-c1cn2ccsc2n1	29.4 µM (inactive)	24.4 µM (inactive)		42.8 µM (inactive)	60.5 µM (inactive)	40.8 µM (inactive)	95.7 µM (inactive)	34.1 µM (inactive)	52.6 µM (inactive)	58.5 µM (inactive)	20.5 µM (inactive)	12.4 µM (inactive)	46.6 µM (inactive)	46 µM (inactive)	95.1 µM (inactive)	36.1 µM	21 µM (inactive)	24.6 µM (inactive)	83.6 µM (inactive)	98.4 µM (inactive)
COc1cc([C@@H]2c3cc4c(cc3[C@H](OC3OC5COC(c6ccco6)OC5C(O)C3O)C3COC(=O)[C@@H]32)OCO4)cc(OC)c1OC (stereo partly drawn)	14.2 µM (inactive)		7.66 µM (inactive)	5.35 µM (inactive)	4.6 µM (inactive)	3.59 µM (inactive)	3.15 µM (inactive)	4 µM (inactive)	3.48 µM (inactive)	3.3 µM (inactive)	3.56 µM (inactive)	9.93 µM (inactive)	8.2 µM (inactive)	2.04 µM (inactive)	5.24 µM (inactive)	3.2 µM	8.34 µM (inactive)	4.43 µM (inactive)	> 19.9 µM (inactive)	2.74 µM (inactive)
C1C2CC3CC1CC(c1nn4c(C56CC7CC(CC(C7)C5)C6)nnc4s1)(C2)C3		> 100 µM (inactive)	> 100 µM (inactive)	> 100 µM (inactive)	> 100 µM (inactive)	> 100 µM (inactive)	> 100 µM (inactive)	> 100 µM (inactive)	> 100 µM (inactive)	> 100 µM (inactive)	> 100 µM (inactive)	> 100 µM (inactive)	> 100 µM (inactive)	> 100 µM (inactive)		> 100 µM	> 100 µM (inactive)	> 100 µM (inactive)	> 100 µM (inactive)	> 100 µM (inactive)
Cc1ccc(/N=C2N=C(Cl)/C(=C\c3ccccc3)N\2)cc1	> 25.8 µM (inactive)	2.33 µM (inactive)	> 100 µM (inactive)	> 100 µM (inactive)		30.6 µM (inactive)	64.6 µM (inactive)	12.2 µM (inactive)	> 79.3 µM (inactive)	> 100 µM (inactive)	> 100 µM (inactive)	> 100 µM (inactive)	> 100 µM (inactive)	51.9 µM (inactive)	> 76.6 µM (inactive)	2.88 µM	> 100 µM (inactive)	> 100 µM (inactive)	> 100 µM (inactive)	> 100 µM (inactive)
c1ccc2c3nnc(c2c1)SCCSCCCSCCS3	56.9 µM (inactive)		> 100 µM (inactive)	39.7 µM (inactive)	61.1 µM (inactive)	> 100 µM (inactive)	> 100 µM (inactive)	> 100 µM (inactive)	43.1 µM (inactive)	29.1 µM (inactive)	34.4 µM (inactive)	37.2 µM (inactive)	43.5 µM (inactive)	> 100 µM (inactive)	> 100 µM (inactive)	> 100 µM	50.9 µM (inactive)	22.1 µM (inactive)	27.8 µM (inactive)	12.6 µM (inactive)
CN[C@@H](Cc1cccc2ccccc12)C(=O)N[C@@H](CC(C)C)B(O)O	< 0.014 µM (active)	< 0.01 µM (active)	< 0.01 µM (active)	< 0.01 µM (active)	< 0.01 µM (active)	< 0.01 µM (active)	< 0.0109 µM (active)	< 0.01 µM (active)	< 0.0119 µM (active)	< 0.01 µM (active)	< 0.01 µM (active)	< 0.01 µM (active)	< 0.01 µM (active)	< 0.01 µM (active)		< 0.01 µM	< 0.01 µM (active)	< 0.01 µM (active)	0.166 µM (active)	< 0.01 µM (active)
CCOC(=O)/C(C#N)=C/c1ccc(SCc2ccco2)c([N+](=O)[O-])c1	> 100 µM (inactive)	> 100 µM (inactive)	> 100 µM (inactive)	> 100 µM (inactive)	> 100 µM (inactive)	> 100 µM (inactive)	> 100 µM (inactive)	> 100 µM (inactive)	> 100 µM (inactive)	> 100 µM (inactive)	> 100 µM (inactive)	> 100 µM (inactive)	> 100 µM (inactive)	> 100 µM (inactive)	> 100 µM (inactive)		> 100 µM (inactive)	> 100 µM (inactive)	> 100 µM (inactive)	56.8 µM (inactive)
CCCCCCCCCCCCCCCCCCNC(=O)C(N)Cc1ccc(OCc2ccccc2)cn1 (stereo not drawn)	15.8 µM (inactive)	16 µM (inactive)	21.1 µM (inactive)	17.2 µM (inactive)	24.1 µM (inactive)	17.3 µM (inactive)	21.3 µM (inactive)	11.9 µM (inactive)	14.2 µM (inactive)	24.5 µM (inactive)	15.2 µM (inactive)	17.1 µM (inactive)	21.9 µM (inactive)	26.5 µM (inactive)	19.1 µM (inactive)	18.9 µM	18.7 µM (inactive)	20.9 µM (inactive)	22.7 µM (inactive)	
CC(C)c1c(P(=O)(c2ccccc2)c2ccccc2)n(C)c2ccccc12	89.9 µM (inactive)	34.8 µM (inactive)	54.7 µM (inactive)		35.2 µM (inactive)	45.5 µM (inactive)	80.2 µM (inactive)	> 100 µM (inactive)	58.7 µM (inactive)	> 100 µM (inactive)		> 100 µM (inactive)	51.9 µM (inactive)	56.1 µM (inactive)	90.6 µM (inactive)	72.3 µM	23.4 µM (inactive)	> 100 µM (inactive)		> 100 µM (inactive)
COC(=O)C1(CCC(C)=O)CCCCCC1=O (stereo not drawn)		> 100 µM (inactive)	> 100 µM (inactive)	> 100 µM (inactive)	> 100 µM (inactive)	> 100 µM (inactive)	> 100 µM (inactive)	> 100 µM (inactive)	> 100 µM (inactive)	> 100 µM (inactive)	> 100 µM (inactive)	> 100 µM (inactive)	> 100 µM (inactive)	> 100 µM (inactive)	> 100 µM (inactive)	> 100 µM	> 100 µM (inactive)	> 100 µM (inactive)	> 100 µM (inactive)	> 100 µM (inactive)
COC(=O)C1=CC(=O)OC1(OO)c1ccc(Br)cc1 (stereo not drawn)	> 100 µM (inactive)	31.8 µM (inactive)	> 100 µM (inactive)	> 100 µM (inactive)	> 100 µM (inactive)	> 100 µM (inactive)	> 100 µM (inactive)	> 100 µM (inactive)	> 100 µM (inactive)	65.2 µM (inactive)	> 100 µM (inactive)	> 100 µM (inactive)		> 100 µM (inactive)	> 100 µM (inactive)	46.5 µM	> 100 µM (inactive)	> 100 µM (inactive)	> 100 µM (inactive)	> 100 µM (inactive)
OCCN(CCO)c1nc(N2CCCCC2)c2nc(N(CCO)CCO)nc(N3CCCCC3)c2n1 [DIPYRIDAMOLE]	29.2 µM (inactive)	24.4 µM (inactive)	90.8 µM (inactive)	45.5 µM (inactive)	33.9 µM (inactive)	69.7 µM (inactive)	48.8 µM (inactive)	16.3 µM (inactive)	33.3 µM (inactive)	31.9 µM (inactive)	66.7 µM (inactive)	12.1 µM (inactive)		45.8 µM (inactive)	39.3 µM (inactive)	31.4 µM	17.9 µM (inactive)	43.3 µM (inactive)		
O=NN(CCCl)C(=O)NC1CCCCC1 [LOMUSTINE]	52.2 µM (inactive)	18.4 µM (inactive)	81.1 µM (inactive)		69.3 µM (inactive)	3.36 µM (inactive)	42.1 µM (inactive)	56 µM (inactive)	32.4 µM (inactive)	16.4 µM (inactive)	47 µM (inactive)	31.3 µM (inactive)	24.5 µM (inactive)	18.7 µM (inactive)	54.2 µM (inactive)	29.9 µM	24.4 µM (inactive)	21.6 µM (inactive)	71.8 µM (inactive)	24 µM (inactive)
